As a reminder, the Ki is a measure of affinity in units of concentration, obtained from inhibition or displacement.

Each structure is given as a SMILES string. Where two headings read alike, the source gives them in different places.

The record followed here is patent US7049314B2, “Cyclopentyl indole derivatives” (Bristol-Myers Squibb Company, priority 2002, dated 2006).

Assay [1] deals with T1, human norepinephrine transporters (Homo sapiens, UniProt P23975).
T1 construct: host or cells: MDCK cells (also 'HEK-hNET cells'), membrane homogenates
Kind of assay: Norepinephrine Transporter Binding Assay ([3H]-nisoxetine displacement, hNET cell membranes). The conditions noted are these: 2.7 nM [3H]-nisoxetine, 1 hr at 4° C., read-out: NE Reuptake (binding Ki). The protocol: MDCK cells that stably express human norepinephrine transporters (HEK-hNET cells) were supplied by Receptor Biology, Inc. Pellets were resuspended by homogenization in buffer consisting of 50 mM Tris (pH 7.4 at 25° C.), 120 mM NaCl and 5 mM KCl. Membrane homogenates (200 μl/well, 8 ug protein) were incubated with 2.7 nM [^3H]-nisoxetine (specific activity=80 Ci/mMol) and increasing concentrations of test compounds for 1 hr at 4° C. in a total volume of 250 μl. The assay buffer consisted of 50 mM Tris (pH 7.4 at 25° C.), 120 mM NaCl and 5 mM KCl (pH 7.4 with conc. HCl). Plates were incubated for 1 hr at 4° C., then filtered through 0.5% PEI treated Whatman GF/B filters using a Brandel cell harvester. Filters were washed three times with 3 mL of ice-cold tris wash buffer. Non-specific binding was defined with 10 μM desipramine. Amount of radioligand bound in the presence and absence of competitor was analyzed by plotting (−)log drug concentration versus the amount of radioligand specifically bound. The midpoint of the displacement curve (IC50, nM), signifies the potency. Ki values were calculated using the method of Cheng and Prusoff (1973).

In assay [2] the target is T2, human serotonin transporters (Homo sapiens, UniProt P31645).
T2 construct: expressed in transfected cells
As to the kind of experiment: Serotonin Transporter Binding Assay ([3H]-citalopram displacement, HEK-hSERT cell membranes). The protocol:
HEK-293 cells that stably express human serotonin transporters (HEK-hSERT cells) were grown at 37° C. in 5% CO2 as a monolayer in medium consisting of EMEM supplemented with 10% fetal bovine serum and G418 sulfate (500 μg/mL). To prepare membranes for radioligand binding experiments, cells were rinsed twice with phosphate-buffered saline (138 mM NaCl, 4.1 mM KCl, 5.1 mM Na2PO4, 1.5 mM […], 11.1 mM glucose, pH 7.4). Cells were transferred from plates to polypropylene tubes (16×100 mm), centrifuged at 1,200×g for 5 min and were frozen at −80° C. until assay. Following centrifugation, pellets were resuspended by homogenization in buffer consisting of 50 mM Tris (pH 7.7 at 25° C.), 120 mM NaCl and 5 mM KCl and then centrifuged at 32,000×g for 10 min. Following centrifugation, supernatants were discarded and pellets were resuspended in buffer consisting of 50 mM Tris (pH 7.4 at 25° C.), 150 mM NaCl and 5 mM KCl. Membrane homogenates (200 μl/plate) were incubated with 1 nM [^3H]-citalopram (specific activity=85 Ci/mMol) and increasing concentrations of test compounds for 1 hr at 25° C. in a total volume of 250 μl. The assay buffer consisted of 50 mM Tris (pH 7.4 at 25° C.), 120 mM NaCl and 5 mM KCl (pH 7.4 with conc. HCl). Plates were incubated for 1 hr at 25° C., then filtered through 0.5% PEI treated Whatman GF/B filters using a Brandel cell harvester. Filters were washed three times with 3 mL of ice-cold tris wash buffer. Non-specific binding was defined with 10 μM fluoxetine. Amount of radioligand bound in the presence and absence of competitor was analyzed by plotting (−)log drug concentration versus the amount of radioligand specifically bound. The midpoint of the displacement curve (IC50, nM), signifies the potency. Ki values were calculated using the method of Cheng and Prusoff (1973).

Setting [3] is: HEK-hSERT membranes, 1 nM [3H]-citalopram, 1 hr at 25° C., read-out: SERT (binding Ki).

T2 sequence (P31645 whole entry): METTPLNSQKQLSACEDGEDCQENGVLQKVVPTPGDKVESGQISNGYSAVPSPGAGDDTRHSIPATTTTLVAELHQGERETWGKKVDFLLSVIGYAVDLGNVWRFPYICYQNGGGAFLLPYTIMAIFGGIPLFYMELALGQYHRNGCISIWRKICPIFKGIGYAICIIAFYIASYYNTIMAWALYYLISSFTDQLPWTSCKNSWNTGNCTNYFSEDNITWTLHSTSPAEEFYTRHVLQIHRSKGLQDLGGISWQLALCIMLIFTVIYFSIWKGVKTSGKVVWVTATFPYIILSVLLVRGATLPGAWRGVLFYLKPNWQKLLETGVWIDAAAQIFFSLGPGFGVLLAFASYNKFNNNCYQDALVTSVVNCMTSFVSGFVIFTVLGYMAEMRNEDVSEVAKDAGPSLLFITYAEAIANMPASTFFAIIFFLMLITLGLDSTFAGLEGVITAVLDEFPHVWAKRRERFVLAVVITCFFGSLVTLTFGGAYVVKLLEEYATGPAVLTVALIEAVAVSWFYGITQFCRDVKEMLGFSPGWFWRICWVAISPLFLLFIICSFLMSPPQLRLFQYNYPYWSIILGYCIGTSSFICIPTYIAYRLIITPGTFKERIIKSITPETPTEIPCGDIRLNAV
T1 sequence (P23975 whole entry): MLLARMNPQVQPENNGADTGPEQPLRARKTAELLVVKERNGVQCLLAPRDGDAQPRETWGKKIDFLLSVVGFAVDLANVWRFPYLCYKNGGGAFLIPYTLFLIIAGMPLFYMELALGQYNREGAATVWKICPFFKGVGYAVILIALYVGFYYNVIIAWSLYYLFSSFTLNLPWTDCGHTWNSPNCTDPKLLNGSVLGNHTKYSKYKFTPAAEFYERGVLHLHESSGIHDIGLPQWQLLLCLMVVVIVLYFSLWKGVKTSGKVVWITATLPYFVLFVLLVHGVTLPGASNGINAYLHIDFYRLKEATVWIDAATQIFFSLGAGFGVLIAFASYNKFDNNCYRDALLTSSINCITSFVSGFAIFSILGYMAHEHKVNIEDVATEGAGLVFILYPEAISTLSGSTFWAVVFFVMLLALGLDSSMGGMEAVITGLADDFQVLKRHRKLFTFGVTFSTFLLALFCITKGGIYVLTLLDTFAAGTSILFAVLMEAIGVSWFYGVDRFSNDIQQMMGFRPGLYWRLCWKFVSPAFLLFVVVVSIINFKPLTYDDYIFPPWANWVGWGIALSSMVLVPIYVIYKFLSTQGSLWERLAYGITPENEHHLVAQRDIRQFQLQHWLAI

`CNC1CCC(c2c[nH]c3ccc(C#N)cc23)C1` (stereo not drawn) [Compound 1, 3-(3-Methylamino-cyclopentyl)-1H-indole-5-carbonitrile]: the Ki in assay [1] is greater than 1000 nM; in assay [2], 1 to 10 nM.
On the same counts, the results for `CCNC1CCC(c2c[nH]c3ccc(C#N)cc23)C1` (stereo not drawn) [Compound 2, 3-(3-Ethylamino-cyclopentyl)-1H-indole-5-carbonitrile] are greater than 1000 nM and 1 to 10 nM.
In the case of `CN(C)C1CCC(c2c[nH]c3ccc(C#N)cc23)C1` (stereo not drawn) [Compound 3, 3-(3-Dimethylamino-cyclopentyl)-1H-indole-5-carbonitrile], the results for the Ki in assay [1] and in assay [2] (setting [3]) were greater than 1000 nM and less than 1 nM, respectively.
On the same counts, the results for `CCN(C)C1CCC(c2c[nH]c3ccc(C#N)cc23)C1` (stereo not drawn) [Compound 4, 3-[3-(Ethyl-methyl-amino)-cyclopentyl]-1H-indole-5-carbonitrile] are greater than 1000 nM and 1 to 10 nM.
On the same counts, the results for `CCN(CC)C1CCC(c2c[nH]c3ccc(C#N)cc23)C1` (stereo not drawn) [Compound 5, 3-(3-Diethylamino-cyclopentyl)-1H-indole-5-carbonitrile] are greater than 1000 nM and 1 to 10 nM.
`N#Cc1ccc2[nH]cc(C3CCC(N4CCCC4)C3)c2c1` (stereo not drawn) [Compound 6, 3-(3-Pyrrolidin-1-yl-cyclopentyl)-1H-indole-5-carbonitrile]: the Ki was greater than 1000 nM in assay [1] and 1 to 10 nM in assay [2].
Take `N#Cc1ccc2[nH]cc(C3CCC(N4Cc5ccccc5C4)C3)c2c1` (stereo not drawn) [Compound 7, 3-[3-(1,3-Dihydro-isoindol-2-yl)-cyclopentyl]-1H-indole-5-carbonitrile]: the Ki in assay [1] is greater than 1000 nM; in assay [2] (setting [3]), 1 to 10 nM.
On the same counts, the results for `N#Cc1ccc2[nH]cc(C3CCC(N4CCc5ccccc5C4)C3)c2c1` (stereo not drawn) [Compound 8, 3-[3-(3,4-Dihydro-1H-isoquinolin-2-yl)-cyclopentyl]-1H-indole-5-carbonitrile] are 100 to 1000 nM and 1 to 10 nM.
On the same counts, the results for `N#Cc1ccc2[nH]cc(C3CCC(NCCc4ccccc4)C3)c2c1` (stereo not drawn) [Compound 9, 3-(3-Phenethylamino-cyclopentyl)-1H-indole-5-carbonitrile] are 100 to 1000 nM and 1 to 10 nM.
On the same counts, the results for `CN(CCc1ccccc1)C1CCC(c2c[nH]c3ccc(C#N)cc23)C1` (stereo not drawn) [Compound 10, 3-[3-(Methyl-phenethyl-amino)-cyclopentyl]-1H-indole-5-carbonitrile] are 100 to 1000 nM and 1 to 10 nM.
Turning to `N#Cc1ccc2[nH]cc(C3CCC(N4CCOCC4)C3)c2c1` (stereo not drawn) [Compound 11, 3-(3-Morpholin-4-yl-cyclopentyl)-1H-indole-5-carbonitrile], the Ki in assay [1] was greater than 1000 nM; in assay [2], less than 1 nM.
For the molecule `CN(Cc1ccccc1)C1CCC(c2c[nH]c3ccc(C#N)cc23)C1` (stereo not drawn) [Compound 12, 3-[3-(Benzyl-methyl-amino)-cyclopentyl]-1H-indole-5-carbonitrile], the Ki in assay [1] was in the range of 100 to 1000 nM; in assay [2] (setting [3]) it was 1 to 10 nM.
On the same counts, the results for `N#Cc1ccc2[nH]cc(C3CCC(NCc4ccccc4)C3)c2c1` (stereo not drawn) [Compound 13, 3-(3-Benzylamino-cyclopentyl)-1H-indole-5-carbonitrile] are 100 to 1000 nM and 1 to 10 nM.
With `N#Cc1ccc2[nH]cc(C3CCC(N4CCCCC4)C3)c2c1` (stereo not drawn) [Compound 14, 3-(3-Piperidin-1-yl-cyclopentyl)-1H-indole-5-carbonitrile], the figures for the Ki in assay [1] and in assay [2] were greater than 1000 nM and less than 1 nM, respectively.
Consider `CCCN(CCC)C1CCC(c2c[nH]c3ccc(C#N)cc23)C1` (stereo not drawn) [Compound 15, 3-(3-Dipropylamino-cyclopentyl)-1H-indole-5-carbonitrile], for which the Ki is greater than 1000 nM in assay [1] and 1 to 10 nM in assay [2] (setting [3]).
As to `CCCNC1CCC(c2c[nH]c3ccc(C#N)cc23)C1` (stereo not drawn) [Compound 16, 3-(3-Propylamino-cyclopentyl)-1H-indole-5-carbonitrile], the figures for the Ki in assay [1] and in assay [2] were greater than 1000 nM and less than 1 nM, respectively.
On the same counts, the results for `CNC1CCC(c2cn(C)c3ccc(C#N)cc23)C1` (stereo not drawn) [Compound 17, 1-Methyl-3-(3-methylamino-cyclopentyl)-1H-indole-5-carbonitrile] are greater than 1000 nM and 1 to 10 nM.
On the same counts, the results for `CCNC1CCC(c2cn(C)c3ccc(C#N)cc23)C1` (stereo not drawn) [Compound 18, 3-(3-Ethylamino-cyclopentyl)-1-methyl-1H-indole-5-carbonitrile] are greater than 1000 nM and less than 1 nM.
With `Cn1cc(C2CCC(NCc3ccccc3)C2)c2cc(C#N)ccc21` (stereo not drawn) [Compound 19, 3-(3-Benzylamino-cyclopentyl)-1-methyl-1H-indole-5-carbonitrile], the results for the Ki in assay [1] and in assay [2] (setting [3]) were 100 to 1000 nM and 1 to 10 nM, respectively.
Regarding `CN(C)C1CCC(c2c[nH]c3cccc(F)c23)C1` (stereo not drawn) [Compound 37, 3-(4-Fluoro-1H-indol-3-yl)-cyclopentyl-dimethyl-amine], the inhibition constant (Ki) in assay [2] (setting [3]) is 10 to 100 nM.
Take `CN(C)C1CCC(c2c[nH]c3cccc(Br)c23)C1` (stereo not drawn) [Compound 38, 3-(4-Bromo-1H-indol-3-yl)-cyclopentyl-dimethyl-amine]: in assay [2] (setting [3]), the Ki lay within 1 to 10 nM.
On the same count and under the same terms, in the case of `CN(C)C1CCC(c2c[nH]c3ccc(Cl)cc23)C1` (stereo not drawn) [Compound 39, 3-(5-Chloro-1H-indol-3-yl)-cyclopentyl-dimethyl-amine] it was 1 to 10 nM; in that of `CN(C)C1CCC(c2c[nH]c3ccc(Br)cc23)C1` (stereo not drawn) [Compound 40, 3-(5-Bromo-1H-indol-3-yl)-cyclopentyl-dimethyl-amine], 1 to 10 nM.
On the same count and under the same terms, in the case of `CN(C)C1CCC(c2c[nH]c3ccc(I)cc23)C1` (stereo not drawn) [Compound 41, 3-(5-Iodo-1H-indol-3-yl)-cyclopentyl-dimethyl-amine] it was 10 to 100 nM; in that of `CN(C)C1CCC(c2c[nH]c3cc(F)ccc23)C1` (stereo not drawn) [Compound 42, 3-(6-Fluoro-1H-indol-3-yl)-cyclopentyl-dimethyl-amine], 1 to 10 nM.
On the same count and under the same terms, in the case of `CN(C)C1CCC(c2c[nH]c3cc(Cl)ccc23)C1` (stereo not drawn) [Compound 43, 3-(6-Chloro-1H-indol-3-yl)-cyclopentyl-dimethyl-amine] it was 1 to 10 nM; in that of `CN(C)C1CCC(c2c[nH]c3cc(Br)ccc23)C1` (stereo not drawn) [Compound 44, 3-(6-Bromo-1H-indol-3-yl)-cyclopentyl-dimethyl-amine], 1 to 10 nM.
For the molecule `CN(C)C1CCC(c2c[nH]c3c(F)cccc23)C1` (stereo not drawn) [Compound 45, 3-(7-Fluoro-1H-indol-3-yl)-cyclopentyl-dimethyl-amine], in assay [2] (setting [3]), the Ki is 1 to 10 nM.
On the same count and under the same terms, as for `CN(C)C1CCC(c2c[nH]c3c(Cl)cccc23)C1` (stereo not drawn) [Compound 46, 3-(7-Chloro-1H-indol-3-yl)-cyclopentyl-dimethyl-amine], the figure is less than 1 nM; as for `CN(C)C1CCC(c2c[nH]c3c(Br)cccc23)C1` (stereo not drawn) [Compound 47, 3-(7-Bromo-1H-indol-3-yl)-cyclopentyl-dimethyl-amine], 1 to 10 nM.
As for `N#Cc1ccc2[nH]cc([C@H]3CCC(N)C3)c2c1` (stereo partly drawn) [Compound 60, (1S)-3-(3-Amino-cyclopentyl)-1H-indole-05-carbonitrile], the Ki in assay [2] (setting [3]) lay in the range of 10 to 100 nM.
On the same count and under the same terms, in the case of `N#Cc1ccc2[nH]cc([C@H]3CCC(NC4CC[C@H](c5c[nH]c6ccc(C#N)cc56)C4)C3)c2c1` (stereo partly drawn) [Compound 61, (3S,3′S)-bis-(3-(5-cyano-1H-indol-3-yl)cyclopentyl)amine] it was 1 to 10 nM.
